Experimental data taken from patent US8445476B2, “Carbacephem β-lactam antibiotics” (Achaogen, Inc., priority 2007, dated 2013).
Converted amounts (≈) assume the structure as drawn. Where two headings read alike, the source gives them in different places.

Tests used:
[1] = system: S. aureus ASAU002 (MRSA ATCC 33591); conditions: previously reported (Craig et al.); cited from earlier work
[2] = previously reported (Griffith et al.); cited from earlier work
[3] = system: S. aureus ASAU001 (Susceptible Organism ATCC 29213); test: MIC assay, S. aureus ASAU001; format: cell-based; conditions: Staphylococcus aureus, ATCC29213, read-out: MIC ASAU 001
Procedure: (§1) The in vitro MIC for bacterial isolates may be obtained in the following manner: a test compound is incorporated into a series of two-fold dilutions in cation adjusted Mueller-Hinton broth (CAMHB). Different bacterial strains diluted to provide a uniform inoculum are added to the CAMHB containing test compounds. A well without test compound is included for each strain as a growth control. […] The procedures used in these experiments are generally those standardized by the Clinical and Laboratory Standards Institute (CLSI), as set forth in the CLSI publication entitled “M7-A7. Methods for dilution antimicrobial susceptibility tests for bacteria that grow aerobically; approved standard-seventh edition.” (2006), which is incorporated by reference as if fully set forth herein. The following exemplifies such a procedure although it is to be understood that modifications of the procedure may be implemented as required.
(§2) Two-fold dilutions of the test compounds are prepared in CAMHB at 2× the concentration range to be tested if the compounds are soluble in aqueous solution. Alternately, dimethylsulfoxide (DMSO) is used to prepare two-fold dilutions at 10× the concentration range to be tested. Reference drugs such as cefotaxime, vancomycin or imipenem are used as positive controls. A few isolated colonies are retrieved from a pure culture prepared on an agar plate and suspended in PBS until the turbidity of the suspension matches a 0.5 McFarland standard which is equal to approximately 10^8 sCFU/mL. This solution is further diluted in CAMHB to 10^6CFU/mL if compounds are diluted in CAMHB and 5×10^5 CFU/mL if compounds are diluted in DMSO. The CAMHB plates containing the compound dilutions are combined in equal volumes with the higher density inoculum, or 10 μL of the DMSO dilutions are added to the lower density inoculum. When S. aureus is the organism being tested and the compound is oxacillin, a beta-lactam or a carbacephem compound of the present invention, 2% NaCl is added to the growth media. The plates are then incubated for 16-20 hours at 35° C. The plates are then observed to determine which concentration of the test compound is the MIC.

[4] = system: Staphylococcus aureus Methicillin Resistance (MRSA) (ATCC 33591); conditions: 160 mg/kg/day, dosed 4 times per day, previously reported (Craig et al.); cited from earlier work
[5] = system: S. aureus ASAU002 (MRSA ATCC 33591); test: MIC assay, S. aureus ASAU002; format: cell-based; conditions: Staphylococcus aureus
Procedure: as §1, §2

[6] = system: S. aureus ASAU1029 (CA-MRSA, USA300); test: MIC assay, S. aureus ASAU1029; format: cell-based; conditions: Staphylococcus aureus, read-out: MIC ASAU 1029
Procedure: as §1, §2

[7] = system: S. aureus ASAU1033 (MRSA, CIP, ERY, CLIN, TET, GEN resistant); test: MIC assay, S. aureus ASAU1033; format: cell-based; conditions: Staphylococcus aureus, read-out: MIC ASAU 1033
Procedure: as §1, §2

[8] = system: S. aureus ASAU1028 (CA-MRSA, USA400); test: MIC assay, S. aureus ASAU1028; format: cell-based; conditions: Staphylococcus aureus, read-out: MIC ASAU 1028
Procedure: as §1, §2

[9] = system: S. aureus ASAU1043 (MRSA, CIP, ERY, CLI, GEN resistant); test: MIC assay, S. aureus ASAU1043; format: cell-based; conditions: Staphylococcus aureus, read-out: MIC ASAU 1043
Procedure: as §1, §2

[10] = Pharmacokinetic study in rats; format: in vivo; conditions: male, Sprague-Dawley, rat
Procedure: Male cannulated Sprague-Dawley rats (˜250 g) are administered test compounds by IV, PO, or SC routes. All animals are weighed prior to dose administration. Blood (˜0.25 mL) is collected by cannula transferred into microtainer tubes containing EDTA at time points 2 (I.V. animals only), 5, 15, 30, 60, 120, 240, 360, 480, 1440 minutes. After collection, the blood samples are centrifuged at approximately 1000×g at 2-8° C. for approximately 10 minutes. Each plasma specimen is collected, aliquoted into cluster tubes, and stored at ˜−20° C. until analysis.

[11] = system: Staphylococcus aureus Methicillin Resistance (MRSA) (ATCC 33591); test: Neutropenic mouse infected thigh model; format: in vivo, mice
Procedure: Groups of 6 male specific-pathogen-free CD-1 mice weighing 22±2 g are used. Animals are rendered immunosuppressedion by two intraperitoneal injections of cyclophosphamide, the first at 150 mg/kg 4 days before infection (day −4) and the second at 100 mg/kg 1 day before infection (day −1). On day 0, animals are inoculated intramuscularly (0.1 ml/thigh) with 1×10^5 CFU/mouse of Staphylococcus aureus Methicillin Resistance (MRSA) (ATCC 33591) into right thigh. Vehicle and/or test substances are then administered (IV, SC, or PO) 2 hours later. At 26 hours after inoculation, muscle of the right thigh is harvested from each of the survival test animals. The removed muscle tissues are then homogenized in 3 to 4 ml of PBS, pH 7.4 with a ceramic mortar. Homogenates of 0.1 ml are used for serial 10-fold dilutions and plated on Muller Hinton Broth in 1.5% Bacto® Agar for CFU determination. Decrease of the CFU/g muscle of right thigh in 99 percent or more (≧99) of the animals indicates significant activity. See, e.g., Andes, D. et al., Antimicrobial Agents and Chemotherapy, 46: 1665-1670 (2002); and Griffith, D. C., et al., Antimicrobial Agents and Chemotherapy, 50: 1628-1632 (2006).
Test compounds were dosed s.c. at 60, 120 or 240 mg/kg/day, except vancomycin at a single dose level of 220 mg/kg/day.

[12] = S. aureus ASAU002, MRSA ATCC 33591, read-out: MIC ASAU 002

MIC [3]	MIC [5, 12]	MIC [6]	MIC [7]	MIC [8]	MIC [9]	SMILES	MIC [1]	T1/2 [2]	Vss [2]	log kill in CFU count [4]	time uncorrected plasma concentrations are above the MIC ([10]; in vivo, 10 mg/kg)	half-life ([10]; plasma, rats, 10 mg/kg IV)	Vd ([10]; plasma, rats, 10 mg/kg IV, read-out: volume of distribution Vss)	MIC ([5]; strain used in the infected thigh model (ATCC 33591), read-out: MIC)	log kill (CFU) in thigh ([11]; s.c., lowest dose of 60 mg/kg/day (TID 20 mg/kg/8 h))	efficacy compared with vancomycin ([11]; vancomycin 220 mg/kg/day (BID 110 mg/kg/12 h))
≤ 1 µg/mL	≤ 1 µg/mL	–	–	–	–	Nc1nnc(SC2=C(C(=O)O)N3C(=O)[C@@H](NC(=O)/C(=N\O)c4nc(N)sc4Cl)[C@H]3CC2)s1 [Comparative Compound 2]	1 µg/mL (≈ 1.93 µM)	1.47 h	0.91 L/kg	3 log kill	–	–	–	–	–	–
≤ 1 µg/mL	1 to 8 µg/mL (≈ 1.89 to 15.1 µM)	≤ 1 µg/mL	1 to 8 µg/mL (≈ 1.89 to 15.1 µM)	1 to 8 µg/mL (≈ 1.89 to 15.1 µM)	1 to 8 µg/mL (≈ 1.89 to 15.1 µM)	Cc1nc(SC2=C(C(=O)O)N3C(=O)[C@@H](NC(=O)/C(=N\O)c4nc(N)sc4Cl)[C@H]3CC2)sc1C [33/1, (6R,7S,Z)-7-(2-(2-amino-5-chlorothiazol-4-yl)-2-(hydroxyimino)acetamido)-3-(4,5-dimethylthiazol-2-ylthio)-8-oxo-1-aza-bicyclo[4.2.0]oct-2-ene-2-carboxylic Acid]	–	–	–	–	–	–	–	–	–	–
≤ 1 µg/mL	1 to 8 µg/mL (≈ 2.02 to 16.2 µM)	≤ 1 µg/mL	1 to 8 µg/mL (≈ 2.02 to 16.2 µM)	≤ 1 µg/mL	1 to 8 µg/mL (≈ 2.02 to 16.2 µM)	Nc1nc(/C(=N/O)C(=O)N[C@@H]2C(=O)N3C(C(=O)O)=C(Sc4ccncc4)CC[C@H]23)c(Cl)s1 [27/1, (6R,7S,Z)-7-(2-(2-amino-5-chlorothiazol-4-yl)-2-(hydroxyimino)acetamido)-8-oxo-3-(pyridin-4-ylthio)-1-aza-bicyclo[4.2.0]oct-2-ene-2-carboxylic Acid]	–	–	–	–	–	–	–	–	–	–
≤ 1 µg/mL	1 to 8 µg/mL (≈ 1.6 to 12.8 µM)	1 to 8 µg/mL (≈ 1.6 to 12.8 µM)	1 to 8 µg/mL (≈ 1.6 to 12.8 µM)	1 to 8 µg/mL (≈ 1.6 to 12.8 µM)	> 8 µg/mL	CO/N=C(\C(=O)N[C@@H]1C(=O)N2C(C(=O)O)=C(Sc3cccnc3CSC3CCNC3)CC[C@H]12)c1nc(N)sc1Cl (stereo partly drawn) [42/1, (6R,7S,Z)-7-(2-(2-amino-5-chlorothiazol-4-yl)-2-(methoxyimino)acetamido)-8-oxo-3-(2-((pyrrolidin-3-ylthio)methyl)pyridin-3-ylthio)-1-aza-bicyclo[4.2.0]oct-2-ene-2-carboxylic Acid]	–	–	–	–	–	–	–	–	–	–
≤ 1 µg/mL	> 8 µg/mL	1 to 8 µg/mL (≈ 2 to 16 µM)	> 8 µg/mL	1 to 8 µg/mL (≈ 2 to 16 µM)	> 8 µg/mL	Nc1nc(/C(=N/O)C(=O)N[C@@H]2C(=O)N3C(C(=O)O)=C(Sc4cscn4)CC[C@H]23)c(Cl)s1 [35/1, (6R,7S,Z)-7-(2-(2-amino-5-chlorothiazol-4-yl)-2-(hydroxyimino)acetamido)-8-oxo-3-(thiazol-4-ylthio)-1-aza-bicyclo[4.2.0]oct-2-ene-2-carboxylic Acid]	–	–	–	–	–	–	–	–	–	–
≤ 1 µg/mL	1 to 8 µg/mL (≈ 1.87 to 15 µM)	≤ 1 µg/mL	1 to 8 µg/mL (≈ 1.87 to 15 µM)	1 to 8 µg/mL (≈ 1.87 to 15 µM)	1 to 8 µg/mL (≈ 1.87 to 15 µM)	Nc1nc(/C(=N\O)C(=O)NC2C(=O)N3C(C(=O)O)=C(/C=C4\CCN(C5CCNC5)C4=O)CS[C@H]23)ns1 (some centres unmarked) [Comparative Compound 1, reference compound]	–	–	–	–	–	–	–	–	–	–
≤ 1 µg/mL	–	1 to 8 µg/mL (≈ 2.01 to 16.1 µM)	> 8 µg/mL	> 8 µg/mL	> 8 µg/mL	CO/N=C(\C(=O)N[C@@H]1C(=O)N2C(C(=O)O)=C(Sc3nnc(N)s3)CC[C@H]12)c1nsc(N)n1 [49/1, (6R,7S,Z)-7-(2-(5-amino-1,2,4-thiadiazol-3-yl)-2-(methoxyimino)acetamido)-3-(5-amino-1,3,4-thiadiazol-2-ylthio)-8-oxo-1-aza-bicyclo[4.2.0]oct-2-ene-2-carboxylic Acid]	–	–	–	–	–	–	–	–	–	–
≤ 1 µg/mL	–	> 8 µg/mL	> 8 µg/mL	1 to 8 µg/mL (≈ 1.91 to 15.3 µM)	> 8 µg/mL	CO/N=C(\C(=O)N[C@@H]1C(=O)N2C(C(=O)O)=C(Sc3cccnc3N)CC[C@H]12)c1nc(N)sc1Cl [40/1, (6R,7S)-7-(2-(2-amino-5-chlorothiazol-4-yl)-2-(methoxyimino)acetamido)-3-(2-aminopyridin-3-ylthio)-8-oxo-1-aza-bicyclo[4.2.0]oct-2-ene-2-carboxylic acid]	–	–	–	–	–	–	–	–	–	–
≤ 1 µg/mL	–	≤ 1 µg/mL	1 to 8 µg/mL (≈ 1.84 to 14.7 µM)	≤ 1 µg/mL	> 8 µg/mL	CO/N=C(\C(=O)N[C@@H]1C(=O)N2C(C(=O)O)=C(Sc3nc(C)c(C)s3)CC[C@H]12)c1nc(N)sc1Cl [38/1, (6R,7S,Z)-7-(2-(2-amino-5-chlorothiazol-4-yl)-2-(methoxyimino)acetamido)-3-(4,5-dimethylthiazol-2-ylthio)-8-oxo-1-aza-bicyclo[4.2.0]oct-2-ene-2-carboxylic Acid]	–	–	–	–	–	–	–	–	–	–
≤ 1 µg/mL	–	1 to 8 µg/mL (≈ 1.81 to 14.5 µM)	> 8 µg/mL	1 to 8 µg/mL (≈ 1.81 to 14.5 µM)	> 8 µg/mL	CO/N=C(\C(=O)N[C@@H]1C(=O)N2C(C(=O)O)=C(Sc3cccnc3CCN)CC[C@H]12)c1nc(N)sc1Cl [39/1, (6R,7S,Z)-7-(2-(2-amino-5-chlorothiazol-4-yl)-2-(methoxyimino)acetamido)-3-(2-(2-aminoethyl)pyridin-3-ylthio)-8-oxo-1-aza-bicyclo[4.2.0]oct-2-ene-2-carboxylic Acid]	–	–	–	–	–	–	–	–	–	–

SMILES	MIC [3]	MIC [5, 12]	MIC [6]	MIC [7]	MIC [8]	MIC [9]	MIC [1]	T1/2 [2]	Vss [2]	log kill in CFU count [4]	time uncorrected plasma concentrations are above the MIC ([10]; in vivo, 10 mg/kg)	half-life ([10]; plasma, rats, 10 mg/kg IV)	Vd ([10]; plasma, rats, 10 mg/kg IV, read-out: volume of distribution Vss)	MIC ([5]; strain used in the infected thigh model (ATCC 33591), read-out: MIC)	log kill (CFU) in thigh ([11]; s.c., lowest dose of 60 mg/kg/day (TID 20 mg/kg/8 h))	efficacy compared with vancomycin ([11]; vancomycin 220 mg/kg/day (BID 110 mg/kg/12 h))
NCCSCc1cnccc1SC1=C(C(=O)O)N2C(=O)[C@@H](NC(=O)/C(=N\O)c3nsc(N)n3)[C@H]2CC1 [48/1, (6R,7S,Z)-7-(2-(5-amino-1,2,4-thiadiazol-3-yl)-2-(hydroxyimino)acetamido)-3-(3-((2-aminoethylthio)methyl)pyridin-4-ylthio)-8-oxo-1-aza-bicyclo[4.2.0]oct-2-ene-2-carboxylic Acid]	≤ 1 µg/mL	≤ 1 µg/mL	≤ 1 µg/mL	1 to 8 µg/mL (≈ 1.82 to 14.5 µM)	≤ 1 µg/mL	1 to 8 µg/mL (≈ 1.82 to 14.5 µM)	–	–	–	–	2 h	1.8 h	1.08 L/kg	1 µg/mL (≈ 1.82 µM)	1 log kill	more effective than vancomycin
